Source: patent US20040266811A1, “Methods for inducing regeneration, remyelination, and hypermyelination of nervous tissue” (priority 2002, published 2004)
“And” between values parts separate entries of the source, which are not always exact repeats. Equal values may be shown once. “Also recorded” adds a separate entry of the source.

How the values were obtained:
[1] = test system: calcineurin; details: cited from earlier work
[2] = test system: crushed sciatic nerve; test: Sciatic nerve crush and regeneration (electron microscopy morphometry); assay type: in vivo, adult, outbred ICR mice
Experimental: (A) The sciatic nerves of adult, outbred ICR mice were crushed, as previously described (Gondre et al., Accelerated nerve regeneration mediated by Schwann cells expressing a mutant form of the POU protein SCIP. J. Cell Biol., 141:493-501, 1998). Following the surgery, the animals were randomized into treatment groups of either GM-284 (10 mg/kg) or vehicle. At the end of 30 days, the animals were sacrificed, their sciatic nerves were prepared for electron microscopy, and subsequently evaluated for the extent of both axonal and myelin regeneration. All sampling was done at the same proximal-distal levels, and approximately 5 mm below the crush site. […] (B) Quantitative analysis of both axonal and myelin growth in response to GM-284 treatment was carried out by digitizing the images in (A), and determining the axonal and myelin volumes, calculated in voxels.
Mice were anesthetized (i.p.) with 0.5 cc of 2.5% Avertin/saline, before perfusion via the left ventricle. The animals were perfused for 30 min at 37° C., with a rat Ringer's solution containing heparin (2.0 ml/L; stock=10,000 units/ml) and 2% lidocaine (3.0 ml/L), followed by perfusion for 7-10 min with 2% glutaraldehyde/1% paraformaldehyde in 0.15 M sodium cacodylate, pH 7.2. Approximately 1 cm of sciatic nerve was dissected from the hind leg (from the hip to the knee), and split into 3 sections (proximal, medial, and distal). A 2-mm length was taken from each of the three sections, then immersion fixed. The primary fixation was carried out for 2-4 h total, at 4° C., with 2% glutaraldehyde/1% paraformaldehyde in 0.15 M sodium cacodylate buffer, pH 7.2. Tissues were rinsed 6 times, for 20 min each, then rinsed overnight at 4° C. in 0.15 M sodium cacodylate buffer, pH 7.2.
Secondary fixation was carried out for 4 h at 4° C. in 1% osmium-tetroxide/1.5% potassium-ferrocyanide in 0.15 M sodium cacodylate buffer, pH 7.2. Tissues were rinsed 3 times, for 10 min each, in Millipore-filtered water at 4° C., then stained en bloc in 2% uranyl acetate (aq) at 4° C. for 1 h. At this point, the tissues were dehydrated once for 8 min in a graded ethanol series starting with water, 30%, 50%, 70%, 95%, and then dehydrated twice, for 10 min each, in 100% ethanol and then in propylene oxide. After dehydration, the nerve tissue was infiltrated with propylene oxide/Durcupan (Fluka Chemika-BioChemika, Ronkonkoma, N.Y.), in a 25/75 ratio, for 60 min at room temperature. This was followed by infiltration three times, for 120 min each, in Durcupan resin at room temperature. Sciatic nerves were flat-embedded in fresh Durcupan resin, and polymerized for 24-36 h at 65° C. 1-μM-thick sections were stained with Toluidine blue. Silver sections were cut on a Diatome diamond knife, and stained with 2% uranyl acetate for 30 min at room temperature, and with Reynold's lead citrate for 7 min. Thin sections were viewed at 60 kv, and photographed on a JEOL 100 CX conventional transmission electron microscope.
Deep anesthesia was obtained with i.p. injection of Avertin. Electrophysiology recordings were obtained, as previously described (Bieri et al., Abnormal nerve conduction studies in mice expressing a mutant form of the POU transcription factor SCIP. J. Neurosci. Res., 50:821-28, 1997). Immediately afterward, the right sciatic nerve of each animal was exposed and crushed 2 times, for 30 sec each, using a #5 Dumont forceps. In brief, the skin was prepped bilaterally prior to electrophysiologic testing. […]

[3] = test system: Erk phosphorylation in DRG neurons; test: Erk phosphorylation immunoblot in DRGs; assay type: cell-based, mice; details: 1 μM GM-284, 30 min or 4 h
Experimental: (A) DRGs were prepared and cultured as above, except that either the MEK1 inhibitor, PD 098059, or NGF-neutralizing antibodies were included in cultures treated with either NGF or GM-284. Maximal response was determined to be the extent of neurite outgrowth when DRGs were cultured in NGF alone (spotted bars) or in 1 μM GM-284 (striped bars). As indicated, DRGs were treated with either NGF or GM-284, in the presence of either 0.25 mg/ml anti-NGF neutralizing antibodies or PD 098059. […] DRGs were treated with 100 ng/ml NGF or 1 μM GM-284, for 30 min or 4 h, as indicated, and the detergent lysates were prepared and immunoblotted with anti-phospho-Erk monoclonal antibody. The p42 and p44 bands are indicated by arrowheads.
293T cells were lysed in ice-cold HNTG buffer (20 mM HEPES, pH 7.5; 150 mM NaCl; 10% glycerol; and 1% Triton X-100) containing 0.1 mM sodium molybdate, 1 mM sodium vanadate, 1 mM phenylmethylsulfonyl fluoride (PMSF), and 10 μg/ml aprotinin. After 10 min at 4° C., cleared lysates were subjected to SDS-PAGE and Western blot analysis using standard protocols. Blots were incubated with the indicated primary antibodies and the appropriate […] secondary antibodies, followed by detection using enhanced chemiluminescence (ECL) reagent (Renaissance, NEN).

[4] = 10 mg/kg daily, one month after crush

CCC(C)(C)C(=O)C(=O)N1CCC[C@H]1c1nnc([C@@H]2CCCN2C(=O)C(=O)C(C)(C)CC)o1 [GM-284]
binding to / inhibition of calcineurin [1]: neither bind to, nor inhibit, calcineurin | increase in myelin (volume in voxels) [2, 4]: ~3 fold | increase in the size of myelinated axons [2, 4]: 3- to 4 fold and 4 fold | histology of regenerated sciatic nerve ([2]; 10 mg/kg daily, one month after crush, electron microscopy): induced both axonal hypertrophy and a global over-elaboration of the myelin organelle; also recorded: enhanced axonal regeneration; also recorded: clear axonal hypertrophy, as well as hypermyelination; also recorded: hypermyelination and axonal hypertrophy | ratio of axonal volume to myelin volume ([2]; GM-284-treated group, NIH Image): 0.2 | increase in myelin volume, relative to each axon ([2]; vs vehicle, p<0.0001): 20 fold | Erk phosphorylation in DRG [3]: no activity on Erk phosphorylation; also recorded: fails to activate the ERK pathway
